# Laboratory results reported in PubChem BioAssay (NCI).
#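 Following 48 hours of exposure in 96-well plates, responses at five concentrations were used to interpolate endpoints linearly. GI50 marks 50% less growth. TGI denotes the concentration required for complete inhibition of growth.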
# Tests used:
# Test in all cases: growth of human tumour cells (NCI), 48 h
# 786-0 renal = system: 786-0 renal
# A498 renal = system: A498 renal
# A549 NSCLC = system: A549 NSCLC
# ACHN renal = system: ACHN renal
# BT-549 breast = system: BT-549 breast
# CAKI-1 renal = system: CAKI-1 renal
# CCRF-CEM leukemia = system: CCRF-CEM leukemia
# COLO 205 colon = system: COLO 205 colon
# DU-145 prostate = system: DU-145 prostate
# EKVX NSCLC = system: EKVX NSCLC
# HCC-2998 colon = system: HCC-2998 colon
# HCT-116 colon = system: HCT-116 colon
# HCT-15 colon = system: HCT-15 colon
# HL-60(TB) leukemia = system: HL-60(TB) leukemia
# HOP-62 NSCLC = system: HOP-62 NSCLC
# HOP-92 NSCLC = system: HOP-92 NSCLC
# HS 578T breast = system: HS 578T breast
# HT29 colon = system: HT29 colon
# IGROV1 ovarian = system: IGROV1 ovarian
# K-562 leukemia = system: K-562 leukemia
# KM12 colon = system: KM12 colon
# LOX IMVI melanoma = system: LOX IMVI melanoma
# M14 melanoma = system: M14 melanoma
# MALME-3M melanoma = system: MALME-3M melanoma
# MCF7 breast = system: MCF7 breast
# MDA-MB-231 breast = system: MDA-MB-231 breast
# MDA-MB-435 = system: MDA-MB-435
# MOLT-4 leukemia = system: MOLT-4 leukemia
# NCI-H226 lung = system: NCI-H226 lung
compound,measurement,setting,value
COC1CCC(OC)C(c2nc3sccn3c2/C=N/N=C(N)N)C1 (stereo not drawn),GI50,786-0 renal,19.7 µM
same,TGI,786-0 renal,47 µM
same,GI50,A498 renal,10.9 µM
same,TGI,A498 renal,41.5 µM
same,GI50,A549 NSCLC,47 µM
same,TGI,A549 NSCLC,> 100 µM
same,GI50,ACHN renal,> 100 µM
same,TGI,ACHN renal,> 100 µM
same,GI50,BT-549 breast,18.4 µM
same,TGI,BT-549 breast,42.4 µM
same,GI50,CAKI-1 renal,> 10.5 µM
same,TGI,CAKI-1 renal,> 82.5 µM
same,GI50,CCRF-CEM leukemia,24.8 µM
same,TGI,CCRF-CEM leukemia,> 64.7 µM
same,GI50,COLO 205 colon,25.3 µM
same,TGI,COLO 205 colon,> 63.7 µM
same,GI50,DU-145 prostate,45.1 µM
same,TGI,DU-145 prostate,> 80.2 µM
same,GI50,EKVX NSCLC,34.8 µM
same,TGI,EKVX NSCLC,> 92.7 µM
same,GI50,HCC-2998 colon,31.1 µM
same,TGI,HCC-2998 colon,54.5 µM
same,GI50,HCT-116 colon,4.9 µM
same,TGI,HCT-116 colon,37.7 µM
same,GI50,HCT-15 colon,> 100 µM
same,TGI,HCT-15 colon,> 100 µM
same,GI50,HL-60(TB) leukemia,1.21 µM
same,TGI,HL-60(TB) leukemia,> 36.7 µM
same,GI50,HOP-62 NSCLC,17.2 µM
same,TGI,HOP-62 NSCLC,42.7 µM
same,GI50,HOP-92 NSCLC,2.76 µM
same,TGI,HOP-92 NSCLC,30.5 µM
same,GI50,HS 578T breast,24.6 µM
same,TGI,HS 578T breast,68.6 µM
same,GI50,HT29 colon,2.59 µM
same,TGI,HT29 colon,> 8.71 µM
same,GI50,IGROV1 ovarian,50 µM
same,TGI,IGROV1 ovarian,> 100 µM
same,GI50,K-562 leukemia,35.4 µM
same,TGI,K-562 leukemia,> 63.3 µM
same,GI50,KM12 colon,16 µM
same,TGI,KM12 colon,40.2 µM
same,GI50,LOX IMVI melanoma,28.5 µM
same,TGI,LOX IMVI melanoma,67.4 µM
same,GI50,M14 melanoma,1.96 µM
same,TGI,M14 melanoma,35.4 µM
same,GI50,MALME-3M melanoma,1.7 µM
same,TGI,MALME-3M melanoma,23.8 µM
same,GI50,MCF7 breast,20.1 µM
same,TGI,MCF7 breast,45 µM
same,GI50,MDA-MB-231 breast,1.68 µM
same,TGI,MDA-MB-231 breast,32.8 µM
same,GI50,MDA-MB-435,17.2 µM
same,TGI,MDA-MB-435,36 µM
same,GI50,MOLT-4 leukemia,> 74.6 µM
same,TGI,MOLT-4 leukemia,> 100 µM
same,GI50,NCI-H226 lung,13.6 µM
same,TGI,NCI-H226 lung,47.5 µM
